Measurements from US8871443B2, “Schizophrenia-related isoform of KCNH2 and development of antipsychotic drugs” (The United States of America, as represented by the …, priority 2007, dated 2014).

Experiments:
KCNH2-1A mRNA expression = test: KCNH2-1A expression in frontal cortex of neuroleptic treated rats; settings: for effect on KCNH2-1A expression within the frontal cortex: one of three doses for 28 days, vs vehicle; for change in KCNH2-1A expression, frontal cortex: 28 days
Experimental: (§1) Referring to FIG. 19, 8-10 rats per treatment group were treated with one of three doses of either Haloperidol (0.08, 0.6, and 1 mg/kg) or Clozapine (0.5, 5, 10 mg/kg) for 28 days (as compared to rats treated with vehicle alone). Frontal cortex expression levels of NOS3 (ABI assay Rn02132634_sl) and KCNH2-1A (ABI assay Rn01442523_ml) were normalized to the geometric mean of two housekeeping genes (GAPDH, B2M). Effects of antipsychotic treatment on gene expression were tested by linear regression with gene expression as the dependent variable. Differences between vehicle alone and the two therapeutic range equivalent dosages (0.08 and 0.6 mg/kg/day of Haloperidol; 0.5 and 5 mg/kg/day of Clozapine) were tested using post-hoc LSD.

[1] = system: patients with schizophrenia; test: CATIE trial, time to discontinuation of olanzapine (Cox proportional hazard model); format: in vivo, human; settings: for hazard ratio (HR) of discontinuation of medication: n=89; for Time to discontinuation, Est (COX proportional hazard model) / Time to discontinuation, HR (hazard ratio): n = 89, event = 46
Excerpt: The second cohort consisted of patients randomly assigned to five medications during the Phase 1/1A (first drug assigned) of the Clinical Antipsychotic Trials of Intervention Effectiveness (CATIE), (Stroup T S, McEvoy J P, Swartz M S, et al. The National Institute of Mental Health Clinical Antipsychotic Trials of Intervention Effectiveness (CATIE) project: Schizophrenia trial design and protocol development. Schizophr. Bull. 2003; 29(1):15-31) a clinical trial to compare the effectiveness of antipsychotic drugs. Patients were initially randomly assigned to receive olanzapine, perphenazine, quetiapine, risperidone or ziprasidone under double-blind conditions and followed up for 18 months or until treatment was discontinued or switched to another antipsychotic (i.e. Phase 2). Eligible patients were 18 to 65 years of age, had received a diagnosis of schizophrenia based on DSM-IV criteria 26 and were able to take oral antipsychotic medication. The primary outcome measure in the CATIE sample was time to medication discontinuation, most often due to lack of efficacy or side-effects. PANSS ratings were included as a secondary efficacy outcome. Details on the CATIE trial methods have been previously published. (Stroup T S, McEvoy J P, Swartz M S, et al. The National Institute of Mental Health Clinical Antipsychotic Trials of Intervention Effectiveness (CATIE) project: Schizophrenia trial design and protocol development. Schizophr. Bull. 2003; 29(1):15-31.) For consistency with the NIMH inpatient study and to reduce effects of genetic heterogeneity, only Caucasian subjects were included for analysis. Because of the outpatient and parallel design of this study, information about compliance based on drug clearance is an important factor determining symptom change during the CATIE trial. (Bigos K L, Pollock B G, Coley K C, et al. Sex, race, and smoking impact olanzapine exposure. Journal of Clinical Pharmacology. 2008; 48(2):157-165; Bigos K L, Bies R R, Pollock B G, Lowy J J, Zhang F, Weinberger D R. Genetic Variation in CYP3A43 Explains Racial Difference in Olanzapine Clearance. Molecular Psychiatry. In Press.) Thus, we only analyzed treatment response from subjects on whom we had drug clearance data (N=364) (Bigos K L, Pollock B G, Coley K C, et al. Sex, race, and smoking impact olanzapine exposure. Journal of Clinical Pharmacology. 2008; 48(2):157-165). Drug clearance was estimated using population pharmacokinetic modeling of drug concentrations and used in the statistical analysis of treatment response as previously described. (Bigos K L, Pollock B G, Coley K C, et al. Sex, race, and smoking impact olanzapine exposure. Journal of Clinical Pharmacology. 2008; 48(2):157-165. Bigos K L, Bies R R, Pollock B G, Lowy J J, Zhang F, Weinberger D R. Genetic Variation in CYP3A43 Explains Racial Difference in Olanzapine Clearance. Molecular Psychiatry. In Press.)
We genotyped three SNPs rs3900779, rs748693 and rs1036145 in KCNH2 which have been associated with schizophrenia and with expression of the novel KCNH2 3.1 isoform in human post-mortem brain. (Huffaker S J, Chen J S, Nicodemus K K, et al. A primate-specific, brain isoform of KCNH2 affects cortical physiology, cognition, neuronal repolarization and risk of schizophrenia. Nat. Med. May 2009; 15(5):509-518.) Genotypes were determined using the 5′-exonuclease fluorescent Taqman assay (assay by design or assay on demand) and the allelic discrimination was read on an ABI 7900 SDS system (Applied Biosystems, Foster City, Calif.). (Livak K J. Allelic discrimination using fluorogenic probes and the 5′ nuclease assay. Genet. Anal.-Biomol. Eng. February 1999; 14(5-6):143-149.)
We also attempted to examine time to discontinuation of medication, which was a primary outcome measure of the CATIE trial. […]

NOS3 mRNA expression = test: NOS3 expression in frontal cortex of neuroleptic treated rats; format: in vivo, rat; settings: one of three doses for 28 days, vs vehicle
Experimental: as §1

[2] = rs748693, second genotype line (genotype not given) vs non-risk allele homozygote
[3] = rs748693 GG genotype vs non-risk allele homozygote
[4] = rs1036145, second genotype line (genotype not given) vs non-risk allele homozygote
[5] = rs1036145 TT genotype vs non-risk allele homozygote
[6] = rs3900779, second genotype line (genotype not given) vs reference
[7] = rs3900779, third genotype line (genotype not given) vs reference

Compound | effect on KCNH2-1A expression within the frontal cortex (KCNH2-1A mRNA expression) | times less likely to have discontinued medication ([1]; GG genotype at rs748693 vs non-risk allele homozygote) | hazard ratio (HR) of discontinuation of medication ([1]; GG genotype at rs748693 vs non-risk allele homozygote, p=0.031) | times less likely to have discontinued medication ([1]; TT genotype at rs1036145 vs non-risk allele homozygote) | hazard ratio (HR) of discontinuation of medication ([1]; TT genotype at rs1036145 vs non-risk allele homozygote, p=0.033) | Time to discontinuation, Est (COX proportional hazard model) [1, 2] | Time to discontinuation, HR (hazard ratio) [1, 2] | Time to discontinuation, Est (COX proportional hazard model) [1, 3] | Time to discontinuation, HR (hazard ratio) [1, 3] | Time to discontinuation, Est (COX proportional hazard model) [1, 4] | Time to discontinuation, HR (hazard ratio) [1, 4] | Time to discontinuation, Est (COX proportional hazard model) [1, 5] | Time to discontinuation, HR (hazard ratio) [1, 5] | Time to discontinuation, Est (COX proportional hazard model) [1, 6] | Time to discontinuation, HR (hazard ratio) [1, 6] | Time to discontinuation, Est (COX proportional hazard model) [1, 7] | Time to discontinuation, HR (hazard ratio) [1, 7] | change in KCNH2-1A expression, frontal cortex (KCNH2-1A mRNA expression; 0.08 mg/kg/day, did not reach significance (p=0.082)) | change in KCNH2-1A expression, frontal cortex (KCNH2-1A mRNA expression; 0.6 mg/kg/day, did not reach significance (p=0.119)) | effect on NOS3 expression within the frontal cortex (NOS3 mRNA expression)
CN1CCN(C2=Nc3cc(Cl)ccc3Nc3ccccc32)CC1 [clozapine] | Neither clozapine nor haloperidol showed significant effects | – | – | – | – | – | – | – | – | – | – | – | – | – | – | – | – | – | – | –
Cc1cc2c(s1)Nc1ccccc1N=C2N1CCN(C)CC1 [olanzapine] | – | ~4 times | 0.254 | ~5 times | 0.208 | −0.119 | 0.888 | −1.371 | 0.254 | −0.06 | 0.942 | −1.569 | 0.208 | −0.431 | 0.65 | −0.688 | 0.503 | – | – | –
O=C(CCCN1CCC(O)(c2ccc(Cl)cc2)CC1)c1ccc(F)cc1 [haloperidol] | Neither clozapine nor haloperidol showed significant effects | – | – | – | – | – | – | – | – | – | – | – | – | – | – | – | – | slight decrease | slight decrease | Neither clozapine nor haloperidol showed significant effects
